According to patent publication US8492374B2, “Azaazulene compounds” (Industrial Technology Research Institute, priority 2009, dated 2013):
pIC50: −log10 of the molar value.

What was measured:
[1] = molecular target: T1, FLT-3 kinase (Homo sapiens, UniProt P36888); assay: FLT-3 kinase DELFIA assay (HTScan FLT-3 Kinase Assay Kit); assay type: biochemical; conditions: 20 uM ATP; for inhibition at 0.1 µM: 0.1 uM compound; for inhibition at 1 µM: 1 uM compound
T1 construct: human FLT-3 (Arg571-Ser993); GST (N); purchased Cell Signaling Technology HTScan FLT-3 Kinase Assay Kit; host or cells: baculovirus expression system
T1 sequence (P36888 571-993): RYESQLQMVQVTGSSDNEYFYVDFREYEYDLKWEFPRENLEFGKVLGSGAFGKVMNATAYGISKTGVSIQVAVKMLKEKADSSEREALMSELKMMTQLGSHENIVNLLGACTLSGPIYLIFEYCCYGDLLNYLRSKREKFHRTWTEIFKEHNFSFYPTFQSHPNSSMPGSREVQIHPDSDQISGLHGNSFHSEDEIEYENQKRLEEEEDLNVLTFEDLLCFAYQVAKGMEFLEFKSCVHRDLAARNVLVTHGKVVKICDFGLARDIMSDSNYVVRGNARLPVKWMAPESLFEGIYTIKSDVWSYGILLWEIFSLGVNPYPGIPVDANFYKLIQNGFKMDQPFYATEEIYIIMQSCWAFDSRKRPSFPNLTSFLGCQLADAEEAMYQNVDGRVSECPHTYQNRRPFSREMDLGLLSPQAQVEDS
Protocol: (§1) Azaazulene Compounds of this invention were treated for their efficacy in inhibiting activities of FLT-3, c-KIT and KDR kinases by biochemical DELFIA (Dissociation Enhanced Lanthanide FIA) assays according to the procedure described below. The assays were conducted by, Division of Cell Engineering, Biomedical Engineering Research Laboratories, Industrial Technology Research Institute, Bldg. 53, 195, sec. 4, Chung Hsing Rd. Chutung, Hsinchu, Taiwan 310, R.O.C.
The FLT-3 assay was conducted following the protocol described in Protocol for HTScang FLT-3 Kinase Assay Kit (Cell Signaling Technology®).

[2] = molecular target: T2, c-KIT kinase (Homo sapiens, UniProt P10721); assay: c-KIT kinase DELFIA assay (HTScan c-KIT Kinase Assay Kit); assay type: biochemical; conditions: 20 uM ATP; for inhibition at 0.1 µM: 0.1 uM compound; for inhibition at 1 µM: 1 uM compound
T2 construct: human c-KIT (Thr544-Val976); GST (N); purchased Cell Signaling Technology HTScan c-KIT Kinase Assay Kit; host or cells: baculovirus expression system
Protocol: as §1
The c-KIT assay was conducted following the protocol described in Protocol for HTScan® c-KIT Kinase Assay Kit (Cell Signaling Technology®).

[3] = test system: MV4-11 (FLT3-ITD) cell line; assay: In vitro cell activity assay (MTT cell viability, 72 hours); assay type: cell-based; conditions: Homo sapiens, 72 hours at 37° C., 10,000 cells per well, read-out: IC50 against MV4-11
Protocol: Human MV4-11 (FLT3-ITD) cell line was obtained from American Tissue Culture Collection (ATCC number: CRL-9591). The cell line was cultured with RPMI 1640 containing 10% fetal bovine serum, 1 mmol/L sodium pyruvate and 10 mmol/L HEPES (pH 7.4). The cell was grown and maintained in a humidified atmosphere at 37° C. and 5% carbon dioxide.
MV4-11 cell was plated in 96-well microtiter plates (10,000 cells per well) and serial dilutions of indicated compounds were added. At the end of the incubation period (72 hours at 37° C.), cell viability was determined by a tetrazolium dye, MTT (3-(4,5-dimethylthiazol-2-yl)-2,5-diphenyl tetrazolium bromide) (Promega, Madison, Wis.). The formazan crystals were dissolved by DMSO, and the absorbance at a wavelength of 600 nm was recorded using an ELISA plate reader. IC50 values were calculated using nonlinear regression and defined as the concentration needed for a 50% reduction in absorbance of treated versus untreated control cells.

[4] = molecular target: T3, KDR kinase (Homo sapiens, UniProt P35968); assay: KDR kinase DELFIA assay (HTScan VEGFR-2 Kinase Assay Kit); assay type: biochemical; conditions: 20 uM ATP; for inhibition at 1 µM: 1 uM compound, read-out: Kinases inhibitory activities against KDR kinase, 1 uM; for inhibition at 0.1 µM: 0.1 uM compound, read-out: Kinases inhibitory activities against KDR kinase, 0.1 uM
T3 construct: human VEGFR-2 (Val789-Val1356); GST (N); purchased Cell Signaling Technology HTScan VEGFR-2 Kinase Assay Kit; host or cells: baculovirus expression system
Protocol: as §1
The KDR assay was conducted following the protocol described in Protocol for HTScan™ VEGFR-2 Kinase Assay Kit (Cell Signaling Technology™).

T3 sequence (P35968 789-1356): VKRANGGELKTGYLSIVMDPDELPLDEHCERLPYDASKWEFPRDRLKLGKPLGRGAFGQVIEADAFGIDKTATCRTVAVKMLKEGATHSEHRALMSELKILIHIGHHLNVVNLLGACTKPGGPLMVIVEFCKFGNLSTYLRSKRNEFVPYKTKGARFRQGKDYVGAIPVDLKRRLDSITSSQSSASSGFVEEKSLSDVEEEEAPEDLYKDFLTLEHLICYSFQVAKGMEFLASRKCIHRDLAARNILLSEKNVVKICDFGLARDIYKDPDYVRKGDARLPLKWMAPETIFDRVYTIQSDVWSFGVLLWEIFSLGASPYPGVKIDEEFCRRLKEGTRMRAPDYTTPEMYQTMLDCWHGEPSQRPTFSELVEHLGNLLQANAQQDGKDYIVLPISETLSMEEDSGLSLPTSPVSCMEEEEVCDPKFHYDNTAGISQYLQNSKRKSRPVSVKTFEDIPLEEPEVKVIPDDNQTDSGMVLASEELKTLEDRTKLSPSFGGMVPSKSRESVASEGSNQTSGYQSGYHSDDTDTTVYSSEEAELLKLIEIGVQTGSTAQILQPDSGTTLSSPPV
T2 sequence (P10721 544-976): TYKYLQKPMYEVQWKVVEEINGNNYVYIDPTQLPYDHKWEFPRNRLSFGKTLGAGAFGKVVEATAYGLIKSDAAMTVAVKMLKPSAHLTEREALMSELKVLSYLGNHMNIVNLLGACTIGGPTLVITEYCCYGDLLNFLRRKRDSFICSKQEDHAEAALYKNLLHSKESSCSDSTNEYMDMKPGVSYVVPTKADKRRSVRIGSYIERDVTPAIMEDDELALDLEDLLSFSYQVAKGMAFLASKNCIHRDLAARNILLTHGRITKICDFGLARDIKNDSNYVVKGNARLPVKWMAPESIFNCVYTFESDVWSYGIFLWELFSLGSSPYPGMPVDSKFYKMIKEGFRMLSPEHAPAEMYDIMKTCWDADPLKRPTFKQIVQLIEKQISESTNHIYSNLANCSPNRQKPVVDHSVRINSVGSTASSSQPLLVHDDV

Structure (SMILES)	inhibition at 0.1 µM [1] [%]	inhibition at 1 µM [1] [%]	inhibition at 0.1 µM [2] [%]	inhibition at 1 µM [2] [%]	pIC50 [3]	inhibition at 1 µM [4] [%]	inhibition at 0.1 µM [4] [%]
O=c1[nH]c2cccccc-2c1-c1nc2ccccc2[nH]1 [Compound A1, 3-(benzimidazol-2-yl)-1-azaazulen-2-one, reference compound]	11.5	59.4	34.1	64.5	~6.00	–	–
CCN(CC)CCn1c2cccccc-2c(-c2nc3ccccc3[nH]2)c1=O [Compound B1]	8.4	10.4	31.2	41.1	5.30 to 6.00	3.7	–
O=c1[nH]c2cccccc-2c1-c1nc2cc(F)ccc2[nH]1 [Compound B2]	18.9	59.9	6.4	57.9	5.30 to 6.00	94.5	78.3
O=c1[nH]c2cccccc-2c1-c1nc2cc(C(F)(F)F)ccc2[nH]1 [Compound B4]	13.7	37.1	5	37.6	5.30 to 6.00	17.8	14.4
Nc1ncnc2[nH]c(-c3c4cccccc-4[nH]c3=O)nc12 [Compound B11]	12.5	27.3	15.1	43.7	5.30 to 6.00	–	–
COc1ccc2nc(-c3c4cccccc-4[nH]c3=O)cn2c1 [Compound B14]	–	9.6	20.1	39.4	5.30 to 6.00	–	–
O=c1[nH]c2cccccc-2c1-c1nc2cccnc2[nH]1 [Compound B15]	8.6	18.1	8.5	43.1	5.30 to 6.00	–	–
CN(C)CCCN(C)c1ccc2[nH]c(-c3c4cccccc-4[nH]c3=O)nc2c1 [Compound B21]	20.1	63	10.8	55.4	6.37	–	–
C[N+]1([O-])CC[N+]([O-])(c2ccc3[nH]c(-c4c5cccccc-5[nH]c4=O)nc3c2)CC1 (centres unmarked) [Compound B70]	11.1	27.5	40.5	86.6	~6.00	–	–
O=c1[nH]c2cccccc-2c1-c1nc2cc(N3CCCN(CCF)CC3)ccc2[nH]1 [Compound B80]	23.1	71.4	56.7	82.9	6.10	–	–
O=c1[nH]c2cccccc-2c1-c1nc2cc(N3CCCNCC3)ccc2n1CCCF [Compound B81]	9.9	21	28.9	17.2	6.68	–	–
O=c1[nH]c2cccccc-2c1-c1nc2cc(N3CCCN(CCCF)CC3)ccc2[nH]1 [Compound B82]	30.3	81.6	31	91.1	7.73	–	–
O=c1[nH]c2cccccc-2c1-c1nc2cc(N3CCCN(CCCF)CC3)ccc2n1CCCF [Compound B83]	11	21.2	–	19.7	6.64	–	–
O=c1[nH]c2cccccc-2c1-c1nc2cc(N3CCCN(Cc4cccnc4)CC3)ccc2[nH]1 [Compound B87]	39.8	91.6	49.6	96.2	7.05	–	–
O=CN1CCCN(c2ccc3[nH]c(-c4c5cccccc-5[nH]c4=O)nc3c2)CC1 [Compound B88]	20.6	62.4	47.2	89.2	6.84	–	–
O=c1[nH]c2cccccc-2c1-c1nc2cc(N3CCCN(c4ccccn4)CC3)ccc2[nH]1 [Compound B94]	17	52.3	12.3	79.1	6.07	–	–
O=c1[nH]c2cccccc-2c1-c1nc2cc(N3CCCN(c4ncccc4[N+](=O)[O-])CC3)ccc2[nH]1 [Compound B95]	14.4	37.7	48.3	82.6	6.11	–	–
Cc1cc(N2CCCN(c3ccc4[nH]c(-c5c6cccccc-6[nH]c5=O)nc4c3)CC2)nc(N(C)C)n1 [Compound B97]	8.8	44.6	40.1	87.2	6.30 to 7.00	–	–
O=c1[nH]c2cccccc-2c1-c1nc2cc(-n3ccnc3)ccc2[nH]1 [Compound B115]	25.4	72.7	–	–	6.51	–	–
O=C(Nc1ccc(Cl)c(C(F)(F)F)c1)Nc1ccc2[nH]c(-c3c4cccccc-4[nH]c3=O)nc2c1 [Compound B118]	57.9	76.3	66.6	36.8	7.19	–	–
O=C(Nc1ccc2[nH]c(-c3c4cccccc-4[nH]c3=O)nc2c1)Nc1cc(C(F)(F)F)ccc1F [Compound B119]	32	44.6	–	–	6.30 to 7.00	–	–

The remaining lines, values ahead:

inhibition at 0.1 µM [1] [%]	inhibition at 1 µM [1] [%]	inhibition at 0.1 µM [2] [%]	inhibition at 1 µM [2] [%]	pIC50 [3]	inhibition at 1 µM [4] [%]	inhibition at 0.1 µM [4] [%]	Structure (SMILES)
10.2	10.1	–	–	6.17	–	–	O=C(Nc1ccc2[nH]c(-c3c4cccccc-4[nH]c3=O)nc2c1)Nc1cc(F)ccc1F [Compound B120]
8.6	24	–	–	5.30 to 6.00	–	–	O=C(Nc1ccc(F)c(Cl)c1)Nc1ccc2[nH]c(-c3c4cccccc-4[nH]c3=O)nc2c1 [Compound B130]
7.9	7.3	–	–	5.30 to 6.00	–	–	O=C(Nc1ccc2[nH]c(-c3c4cccccc-4[nH]c3=O)nc2c1)Nc1ccccc1C(F)(F)F [Compound B131]
47.5	72.4	–	–	6.24	–	–	O=C(Nc1cccc(C(F)(F)F)c1)Nc1ccc2[nH]c(-c3c4cccccc-4[nH]c3=O)nc2c1 [Compound B132]
30.5	53.3	–	–	6.30 to 7.00	–	–	O=C(Nc1ccc(C(F)(F)F)cc1)Nc1ccc2[nH]c(-c3c4cccccc-4[nH]c3=O)nc2c1 [Compound B133]
36.8	57.3	–	–	6.17	–	–	O=C(Nc1cc(C(F)(F)F)cc(C(F)(F)F)c1)Nc1ccc2[nH]c(-c3c4cccccc-4[nH]c3=O)nc2c1 [Compound B134]
41.4	62	–	–	6.20	–	–	O=C(Nc1ccc2[nH]c(-c3c4cccccc-4[nH]c3=O)nc2c1)Nc1cc(C(F)(F)F)ccc1Cl [Compound B135]
21	70.8	–	–	5.30 to 6.00	–	–	O=C(Nc1ccc2[nH]c(-c3c4cccccc-4[nH]c3=O)nc2c1)Nc1ccc(Cl)cc1C(F)(F)F [Compound B136]
14.3	19	–	–	7.00 to 7.30	–	–	COc1ccccc1NC(=O)Nc1ccc2[nH]c(-c3c4cccccc-4[nH]c3=O)nc2c1 [Compound B137]
35.6	58.1	–	–	6.14	–	–	COc1cccc(NC(=O)Nc2ccc3[nH]c(-c4c5cccccc-5[nH]c4=O)nc3c2)c1 [Compound B138]
